Values of other authors as cited in patent US20130296280A1, “EUTECTIC MIXTURE COMPRISING CELECOXIB AND POLOXAMER” (priority 2012, published 2013).

Conditions: oral celecoxib; Drug Metab Dispos. 2000:28:308-314

bioavailability: 22-40%
Compound: Cc1ccc(-c2cc(C(F)(F)F)nn2-c2ccc(S(N)(=O)=O)cc2)cc1 [celecoxib, 4-[5-(4-methylphenyl)-3-(trifluoromethyl)-1H-pyrazol-1-yl]benzenesulfonamide]
